Laboratory results taken from patent US20250144031A1, “COMPOSITION FOR TREATING SPINAL MUSCULAR ATROPHY” (Hoffmann-La Roche Inc., priority 2023, published 2025).

How the values were obtained:
[1] = Risdiplam solubility in tartaric acid solution with sodium croscarmellose or crospovidone (UPLC); assay type: physicochemical; settings: 0.6 mg/ml tartaric acid in tap water, pH 4.1, stirred 30 minutes, room temperature
Method: 60 mg of Tartaric Acid were dissolved in 100 ml tap water (0.6 mg/ml) at room temperature and protected from light. A representative amount of Sodium Croscarmellose or Crospovidone was added and dispersed. After that, 100 mg of risdiplam were added, the suspension stirred for 30 minutes und the concentration analyzed by UPLC (see Table 11).

[2] = Impact of sucralose on risdiplam stability; assay type: physicochemical; settings: 25 mg risdiplam and 475 mg Sucralose, 15 days at 70° C./75% Relative Humidity
Method: FIG. 3: Discoloration and decomposition of risdiplam in the presence of Sucralose, a) Risdiplam+Sucralose at time 0, b) risdiplam+Sucralose (70° C./75% Relative Humidity) after 15 days, c) sucralose without Risdiplam (70° C./75% Relative Humidity) after 15 days.
The impact of Sucralose on Risdiplam stability was evaluated. Vial (a) contained […] and is shown at time 0; vial (b) is 25 mg risdiplam and 475 mg Sucralose after 15 days at 70° C./75% Relative Humidity; and vial (c) is Sucralose without Risdiplam after 15 days at 70° C./75% Relative Humidity.

[3] = air of a workplace; classified by regulatory authorities at EU and national levels; cited from earlier work

Cc1cn2nc(-c3cc(=O)n4cc(N5CCNC6(CC6)C5)ccc4n3)cc(C)c2n1 [Risdiplam, 7-(4,7-diazaspiro[2.5]octan-7-yl)-2-(2,8-dimethylimidazo[1,2-b]pyridazin-6-yl)pyrido[1,2-a]pyrimidin-4-one]
Concentration (Nominal 1 mg/ml) ([1]; with Crospovidone (75 mg)): 970 µg/mL
Concentration (Nominal 1 mg/ml) ([1]; with Sodium Croscarmellose (75 mg)): 280 µg/mL
Stability of risdiplam in presence of Sucralose [2]: cause discoloration and promote the decomposition of risdiplam
IOEL (occupational exposure limit) [3]: 1.0-10 microgram/m3
